The text below walks through data of patent US20230323410A1, “BACTERIAL CELLS AND METHODS FOR PRODUCTION OF 2-FLUORO-CIS,CIS-MUCONATE” (priority 2020, published 2023).

SMILES strings stand for the structures. Where two headings read alike, the source gives them in different places.

The test system of experiment [1] is P. knackmussii. Put plainly: Microtiter plate cultivation: growth with metabolites of the bioconversion. The following applies: for growth rate as share of the μmax observed on only glucose: 15 mM; for Maximum growth rate μmax: 30 mM glucose.
The test system of experiment [2] is P. knackmussii. Put plainly: Shaken flask fermentation with 10 mM 2-FBz or 3-FBz. In kind it is cell-based, Pseudomonas knackmussii. Conditions: 10 mM 2-FBz, initial about 20 h.
The subject of another experiment is P. putida KT2440. The following applies: for growth rate as share of the maximum rate on glucose: 20 mM; for Maximum growth rate μmax: 30 mM glucose.
A further experiment has as its system Pmuc3 pSEVA228. In kind it is cell-based, Pseudomonas putida. Conditions: 30 mM glucose.
A further experiment deals with Pmuc10. Put plainly: Microtiter plate cultivation: growth with metabolites of the bioconversion. The following applies: Example 6 (improved method); 30 mM glucose, 2.0 mM additive.
[3] abbreviates: Example 6 (improved method), 10 mM additive.
Setting [4] is: Example 6 (improved method), 15 mM additive.
Where [5] appears, read: Example 6 (improved method), 20 mM additive.
Where [6] appears, read: Example 6 (improved method), 0.5 mM additive.
Where [7] appears, read: Example 6 (improved method), 1.0 mM additive.
Where [8] appears, read: Example 6 (improved method), 2.0 mM additive.
[9] abbreviates: Example 6 (improved method), 5.0 mM additive.

With `O=C(O)c1ccccc1F` [Strain 2-FBz, 2-fluorobenzoic acid], the results for the “growth rate as share of the μmax observed on only glucose” value in the experiment with P. knackmussii [1] (Example 1) and in the experiment on P. knackmussii [1] (Example 6) were 58% and 54%, respectively. For the same compound, the “Maximum growth rate μmax” value in the experiment with P. knackmussii [1] (Example 1, 10 mM additive) is 0.25 h⁻¹; with P. knackmussii [1] (Example 1, 15 mM additive), 0.22 h⁻¹; in the experiment with P. knackmussii [1] (Example 1, 20 mM additive) it was “unable to grow at all”; with P. knackmussii [1] (Example 1, 20 mM additive, listed as K-2-F-benzoate), “no growth”; in the experiment with P. knackmussii [1] (setting [3]), 0.25 h⁻¹; in the experiment with P. knackmussii [1] (setting [4]), 0.19 h⁻¹. The “Maximum growth rate μmax” value with P. knackmussii [1] (setting [5]) was “unable to grow at all”; in the experiment with P. knackmussii [1] (Example 6 (improved method), 20 mM additive, listed as K-2-F-benzoate), “no growth”; in the experiment on P. putida KT2440 (Example 1, 10 mM additive), 0.57 h⁻¹; with P. putida KT2440 (Example 1, 15 mM additive), 0.53 h⁻¹; in the experiment on P. putida KT2440 (Example 1, 20 mM additive), 0.48 h⁻¹; with P. putida KT2440 (setting [3]) it was 0.56 h⁻¹. Further, the figures for the “Maximum growth rate μmax” value in the experiment with P. putida KT2440 (setting [4]) and in the experiment with P. putida KT2440 (setting [5]) were 0.52 h⁻¹ and 0.46 h⁻¹, respectively. Moreover, the figures for the qs in the experiment on P. knackmussii [2] (Example 1) and in the experiment with P. knackmussii [2] (Example 6) were 0.26 mmol gCDW^−1 h^−1 and 0.81 mmol gCDW^−1 h^−1, respectively. For the same compound, the “growth rate as share of the maximum rate on glucose” value with P. putida KT2440 (Example 1) is recorded as 80%; in the experiment with P. putida KT2440 (Example 6), 53%.

`Oc1ccc(F)cc1O` [Strain 4-FC, 4-fluorocatechol]: the “Maximum growth rate μmax” value is 0.34 h⁻¹ with P. knackmussii [1] (Example 1, 0.5 mM additive); 0.32 h⁻¹ in the experiment with P. knackmussii [1] (Example 1, 1.0 mM additive); 0.25 h⁻¹ in the experiment on P. knackmussii [1] (Example 1, 2.0 mM additive); 0.31 h⁻¹ in the experiment on P. knackmussii [1] (setting [6]); 0.26 h⁻¹ in the experiment with P. knackmussii [1] (setting [7]); 0.17 h⁻¹ with P. knackmussii [1] (setting [8]). In addition, the “Maximum growth rate μmax” value in the experiment with P. putida KT2440 (Example 1, 0.5 mM additive) is 0.77 h⁻¹; with P. putida KT2440 (Example 1, 1.0 mM additive), 0.64 h⁻¹; in the experiment on P. putida KT2440 (Example 1, 2.0 mM additive), 0.48 h⁻¹; with P. putida KT2440 (setting [6]) it was 0.72 h⁻¹; in the experiment with P. putida KT2440 (setting [7]), 0.52 h⁻¹; in the experiment on P. putida KT2440 (setting [8]), 0.34 h⁻¹. Also, the “Maximum growth rate μmax” value in the experiment with P. putida KT2440 (setting [9]) was “no growth”; in the experiment on Pmuc3 pSEVA228 (Example 1, 0.5 mM additive), 0.55 h⁻¹; with Pmuc3 pSEVA228 (Example 1, 1.0 mM additive), 0.54 h⁻¹; in the experiment on Pmuc3 pSEVA228 (Example 1, 2.0 mM additive), 0.35 h⁻¹; in the experiment with Pmuc3 pSEVA228 (setting [6]), 0.55 h⁻¹; in the experiment on Pmuc3 pSEVA228 (setting [7]), 0.50 h⁻¹. Besides, the “Maximum growth rate μmax” value with Pmuc3 pSEVA228 (setting [8]) is 0.28 h⁻¹.

Regarding `Oc1cccc(F)c1O` [Strain 3-FC, 3-fluorocatechol], the “Maximum growth rate μmax” value was determined as 0.28 h⁻¹ with P. knackmussii [1] (Example 1, 0.5 mM additive); 0.17 h⁻¹ in the experiment with P. knackmussii [1] (Example 1, 1.0 mM additive); 0.11 h⁻¹ in the experiment with P. knackmussii [1] (Example 1, 2.0 mM additive); 0.32 h⁻¹ with P. knackmussii [1] (setting [6]); 0.31 h⁻¹ in the experiment with P. knackmussii [1] (setting [7]); 0.12 h⁻¹ in the experiment with P. knackmussii [1] (setting [8]). Besides, the “Maximum growth rate μmax” value turned out to be 0.72 h⁻¹ in the experiment on P. putida KT2440 (Example 1, 0.5 mM additive); 0.65 h⁻¹ with P. putida KT2440 (Example 1, 1.0 mM additive); 0.39 h⁻¹ in the experiment with P. putida KT2440 (Example 1, 2.0 mM additive); 0.71 h⁻¹ in the experiment with P. putida KT2440 (setting [6]); 0.68 h⁻¹ with P. putida KT2440 (setting [7]); 0.36 h⁻¹ in the experiment with P. putida KT2440 (setting [8]). The “Maximum growth rate μmax” value with P. putida KT2440 (setting [9]) is “no growth”; in the experiment with Pmuc10, “no growth”; in the experiment on Pmuc3 pSEVA228 (Example 1, 0.5 mM additive), 0.61 h⁻¹; with Pmuc3 pSEVA228 (Example 1, 1.0 mM additive), 0.48 h⁻¹; with Pmuc3 pSEVA228 (Example 1, 2.0 mM additive), 0.22 h⁻¹; in the experiment on Pmuc3 pSEVA228 (setting [6]), 0.74 h⁻¹. The “Maximum growth rate μmax” value in the experiment on Pmuc3 pSEVA228 (setting [8]) amounted to 0.22 h⁻¹.
